How the values were obtained:
STAT-1-DNA binding = assay: EMSA of STAT-1 in hippocampus after MCA-O; assay type: in vivo, mouse; conditions: 1 h MCA-O, 2 h reperfusion, NPD1 0.16 μg/ml infused 3 h
Procedure: (§1) Electrophoretic mobility-shift assay (EMSA) of human AP1, HIF-1α, NF-κBp50/p65, and STAT-1α. Nuclear protein extracts (NPXTs) were prepared from one to three 3.5 cm-diameter wells of HN cells and quantitated. NPXTs (5 μg) derived from HN cells were incubated with[γ-^32P]-ATP (˜3000 Ci/mmol)-end-labeled AP1, HIF-1α, NF-κκBp50/p65, or STAT-1α consensus and mutant oligonucleotides in 5-μl volumes, reacted for 30 min on ice, analyzed on 5% or 10% acrylamide/90 mM Tris-borate pH 8.4, 1 mM EDTA (TBE) gels, dried onto 2-mm Whatman filter paper at 80° C. for 2 h, and phosphorimaged using a Typhoon Variable Mode Imager (Amersham Pharmacia Biotech, Piscataway, N.J. ).
(§2) FIGS. 7A, 7B, and 7C show mouse hippocampus after 1 h MCA-O was followed by 2 h reperfusion, where either vehicle, DHA, or 10,17S-docosatriene (NPD1) (0.16 μg/ml) was infused into the third ventricle for 3 h at 0.25 μl/h. […] NF-κB was increased over two fold in the ipsilateral hippocampus after MCA-O, and the infusion of either DHA or 10,17S-docosatriene (NPD1) inhibited ischemia-reperfusion-induced NF-κB activation by 28% and 48%, respectively (FIG. 7A).

[1] = test system: NF-κB-DNA binding activity; assay: EMSA of NF-κB in hippocampus after MCA-O; assay type: in vivo, mouse; conditions: ipsilateral hippocampus; 1 h MCA-O, 2 h reperfusion; infused into third ventricle 3 h at 0.25 μl/h (NPD1 0.16 μg/ml)
Procedure: as §1, §2

Bcl-xL = assay: Western blot of Bcl-xL in ARPE-19 cells under TNFα/H2O2; assay type: cell-based, human; conditions: 50 nM; TNFα plus H2O2 (400 or 800 μM) 6 h
Procedure: Analysis of pro- and anti-apoptotic proteins in ARPE-19 cells: Bcl-2 family proteins were analyzed by Western-blot analysis. In brief, 20-μg equivalents of each cell extract were subjected to electrophoresis on a 8-16% gel (Promega, Madison, Wis.) at 125 volts for 2 h. The proteins were transferred to nitrocellulose membrane at 30 volts for 1 h at 4° C. The membranes were subjected to treatment with primary antibodies of Bcl-2, Bcl-xL, Bax, and Bad for 1 h at room temperature, and probed 30 min with secondary antibody, goat anti-rabbit Ig:HRPO and HRP-conjugated anti-biotin antibody. (BD Sciences—Pharminogen, San Diego, Calif.) Then proteins were evaluated using an ECL kit. (Amersham Biosciences Corp., Piscataway, N.J.)
Using the same TNFα/H2O2 concentrations, Bcl-2 proteins were assayed. Cells were grown for 72 h after plating, placed in serum-free medium for 1 h, then incubated with TNFα/H2O2 for 6 h. Protein expression and Western-blot analysis were performed as described in Example 13. Data in FIGS. 14A, 14B, 14C and 14D represent four independent experiments with triplicate samples in each case. Anti-apoptotic protein Bcl-xL was enhanced in ARPE-19 cells by TNFα/H2O2 (800 μM) (FIG. 14B, first bar), whereas Bcl-2 was not changed (FIG. 14A, first bar).

TNFα gene expression = assay: HGU133 GeneChip DNA array in HN cells: TNFα; assay type: cell-based, human; conditions: Aβ42 25 μM, DHA 50 nM or NPD1 50 nM, 18 h, nsc = no significant change
AP1-DNA binding activity = assay: EMSA of AP1 in IL-1β-exposed human neural progenitor cells; assay type: cell-based; conditions: HN progenitor cells
Procedure: Human neural (HN) progenitor cells in primary culture. HN cells were grown to ˜70% confluence (˜50,000 cells per 3.5-cm diameter well) in 6-well COSTAR plates at 37° C., 5% CO2/20% O2/75% N2 in humidified air at 1 atm (normoxic conditions) in NPMM medium (Clonetics CC-4241) supplemented with hFGF, NSF-1, hEGF, GA-1000, as described by the manufacturer (Clonetics, Walkersville, Md.). HN cells tested negative for HIV-1, hepatitis B and C, mycoplasma, bacteria, yeast, and fungi, and positive for the glial and neuronal markers GFAP, MAP2, and β-tubulin III (Clonetics). […]
as §1

[2] = test system: polymorphonuclear leukocyte infiltration; assay: Zymosan-induced peritonitis, leukocyte infiltration; assay type: in vivo, mouse; conditions: 100 ng i.v. bolus 1.5 min before Zymosan A; lavage at 2 h
Procedure: The inhibition of leukocyte infiltration in zymosan-induced peritonitis by 4,17S-diHDHA and 10,17S-docosatriene (NPD1) was tested. […] Peritonitis was induced in 6- to 8-week-old male FVB mice (Charles River Laboratories) by peritoneal injection of 1 mg Zymosan A. The compounds 4,17S- and 10,17S-diHDHA were injected by intravenous bolus injection, 1.5 minutes before Zymosan A treatment. Two hours after induction of peritonitis, rapid peritoneal lavages were collected, and cell type enumeration was performed.

Bcl-xL gene expression = assay: HGU133 GeneChip DNA array in HN cells: Bcl-xL; assay type: cell-based, human; conditions: Aβ42 25 μM, DHA 50 nM or NPD1 50 nM, 18 h, nsc = no significant change
caspase-3 = assay: Caspase-3 cleavage in ARPE-19 cells stably transfected with lentivirus DEVD construct; conditions: 50 nM
Source text: The values shown are the average of triplicate samples in three independent experiments.

CC/C=C\C[C@H](O)\C=C/C=C/C=C/[C@H](O)C/C=C\C/C=C\CCC(=O)O [NPD1, 10,17S-docosatriene]
effect on STAT-1-DNA binding (STAT-1-DNA binding): small effect | inhibition of ischemia-reperfusion-induced NF-κB activation [1]: 48% | effect on Bcl-xL expression (Bcl-xL): increased expression | TNFα gene expression, fold change over untreated controls (TNFα gene expression): nsc | effect on IL-1β-induced AP1-DNA binding activity (AP1-DNA binding activity): did not affect | inhibition of leukocyte infiltration [2]: potent inhibition | Bcl-xL gene expression, fold change over untreated controls (Bcl-xL gene expression): +2.4 fold | inhibition of caspase-3 activation (caspase-3; 400 μM H2O2 with TNFα): 60% | inhibition of caspase-3 activation (caspase-3; 800 μM H2O2 with TNFα): 50%

Reference: US20050075398A1, “Neuroprotectin D1 protects against cellular apoptosis, stroke damage, alzheimer's disease and retinal diseases” (priority 2003, published 2005)
